Measured values: PubChem BioAssay AID1918931 (Molecular Pharmacology Branch, DTP, NCI, 2023)
Several values for one entry are separate records, joined by “and”; a condition that tells them apart may be missing. Equal entries are not always repeated.

Tested on: 138582-337-R-J1-PDC complex spheroid viability
Assay: Anticancer human tumor 138582-337-R-J1-PDC patient-derived Merkel cell tumor cell line growth inhibition
Settings: for viability, T/C: stronger effect = lower value
How it was run: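 Complex spheroids of tumor cells with HUVEC and human MSCs, exposed to iadademstat combined with other agents. Each agent tested in half-log steps from near clinical Cmax (else 10 microM top), DMSO ≤0.25%.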

[1] = curve of first compound, second compound 0.1 µM
[2] = curve of first compound, second compound 0.316 µM
[3] = curve of first compound, second compound 1 µM
[4] = curve of first compound, second compound 3.16 µM
[5] = curve of first compound, second compound 10 µM
[6] = second compound 0.1 µM, first compound 0.000316 µM
[7] = second compound 0.1 µM, first compound 0.001 µM
[8] = second compound 0.1 µM, first compound 0.00316 µM
[9] = second compound 0.1 µM, first compound 0.01 µM
[10] = second compound 0.1 µM, first compound 0.0316 µM
[11] = second compound 0.1 µM, first compound 0.1 µM
[12] = second compound 0.316 µM, first compound 0.000316 µM
[13] = second compound 0.316 µM, first compound 0.001 µM
[14] = second compound 0.316 µM, first compound 0.00316 µM
[15] = second compound 0.316 µM, first compound 0.01 µM
[16] = second compound 0.316 µM, first compound 0.0316 µM
[17] = second compound 0.316 µM, first compound 0.1 µM
[18] = second compound 1 µM, first compound 0.000316 µM
[19] = second compound 1 µM, first compound 0.001 µM
[20] = second compound 1 µM, first compound 0.00316 µM
[21] = second compound 1 µM, first compound 0.01 µM
[22] = second compound 1 µM, first compound 0.0316 µM
[23] = second compound 1 µM, first compound 0.1 µM
[24] = second compound 3.16 µM, first compound 0.000316 µM
[25] = second compound 3.16 µM, first compound 0.001 µM
[26] = second compound 3.16 µM, first compound 0.00316 µM
[27] = second compound 3.16 µM, first compound 0.01 µM
[28] = second compound 3.16 µM, first compound 0.0316 µM
[29] = second compound 3.16 µM, first compound 0.1 µM
[30] = second compound 10 µM, first compound 0.000316 µM
[31] = second compound 10 µM, first compound 0.001 µM
[32] = second compound 10 µM, first compound 0.00316 µM
[33] = second compound 10 µM, first compound 0.01 µM
[34] = second compound 10 µM, first compound 0.0316 µM
[35] = second compound 10 µM, first compound 0.1 µM
[36] = second compound 0.1 µM, first compound 0.316 µM
[37] = second compound 0.1 µM, first compound 1 µM
[38] = second compound 0.1 µM, first compound 3.16 µM
[39] = second compound 0.1 µM, first compound 10 µM
[40] = second compound 0.316 µM, first compound 0.316 µM
[41] = second compound 0.316 µM, first compound 1 µM
[42] = second compound 0.316 µM, first compound 3.16 µM
[43] = second compound 0.316 µM, first compound 10 µM
[44] = second compound 1 µM, first compound 0.316 µM
[45] = second compound 1 µM, first compound 1 µM
[46] = second compound 1 µM, first compound 3.16 µM
[47] = second compound 1 µM, first compound 10 µM
[48] = second compound 3.16 µM, first compound 0.316 µM
[49] = second compound 3.16 µM, first compound 1 µM
[50] = second compound 3.16 µM, first compound 3.16 µM
[51] = second compound 3.16 µM, first compound 10 µM
[52] = second compound 10 µM, first compound 0.316 µM
[53] = second compound 10 µM, first compound 1 µM
[54] = second compound 10 µM, first compound 3.16 µM
[55] = second compound 10 µM, first compound 10 µM
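Wherever viability, T/C is given: 100% = DMSO vehicle control viability.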

## Cn1ncnc1C1c2n[nH]c(=O)c3cc(F)cc(c23)NC1c1ccc(F)cc1 (centres undefined) + NC1CC1c1ccc(-c2cccc(O)c2)cc1
[1]
  IC50: > 100 nM
[2]
  IC50: > 100 nM
[3]
  IC50: > 100 nM
[4]
  IC50: > 100 nM
[5]
  IC50: > 100 nM
[6]
  viability, T/C: 88.1%
[7]
  viability, T/C: 80.2%
[8]
  viability, T/C: 83.3%
[9]
  viability, T/C: 69.9%
[10]
  viability, T/C: 62.3%
[11]
  viability, T/C: 67.3%
[12]
  viability, T/C: 72.5%
[13]
  viability, T/C: 88.3%
[14]
  viability, T/C: 74.2%
[15]
  viability, T/C: 71%
[16]
  viability, T/C: 66%
[17]
  viability, T/C: 70.7%
[18]
  viability, T/C: 79.8%
[19]
  viability, T/C: 83.7%
[20]
  viability, T/C: 73%
[21]
  viability, T/C: 86.2%
[22]
  viability, T/C: 82.2%
[23]
  viability, T/C: 77%
[24]
  viability, T/C: 80.4%
[25]
  viability, T/C: 91.3%
[26]
  viability, T/C: 82.5%
[27]
  viability, T/C: 81.1%
[28]
  viability, T/C: 72.1%
[29]
  viability, T/C: 77.5%
[30]
  viability, T/C: 99%
[31]
  viability, T/C: 96.1%
[32]
  viability, T/C: 100%
[33]
  viability, T/C: 84.3%
[34]
  viability, T/C: 82.7%
[35]
  viability, T/C: 81.2%

## CCN(c1cc(-c2ccc(CN3CCOCC3)cc2)cc(C(=O)NCc2c(C)cc(C)[nH]c2=O)c1C)C1CCOCC1
Compound 0.00949 µM
  viability, T/C: 86.8% and 93.2%
Compound 0.03 µM
  viability, T/C: 103% and 81.7%
Compound 0.0949 µM
  viability, T/C: 82.1% and 70.6%
Compound 0.3 µM
  viability, T/C: 95.9% and 76.5%
Compound 0.949 µM
  viability, T/C: 95.5% and 69.7%
Compound 3 µM
  viability, T/C: 99.3% and 57.8%
Curve of compound
  IC50: > 3000 nM

## CC(C)c1c(-c2ccccc2)nc2c(C#N)c[nH]n2c1=O + NC1CC1c1ccc(-c2cccc(O)c2)cc1
[1]
  IC50: 6250 nM
[2]
  IC50: 4400 nM
[3]
  IC50: 4910 nM
[4]
  IC50: 2530 nM
[5]
  IC50: > 10000 nM
[10]
  viability, T/C: 69.5%
[11]
  viability, T/C: 76.3%
[36]
  viability, T/C: 66.6%
[37]
  viability, T/C: 62.1%
[38]
  viability, T/C: 54.4%
[39]
  viability, T/C: 46.9%
[16]
  viability, T/C: 69.1%
[17]
  viability, T/C: 73.5%
[40]
  viability, T/C: 71.2%
[41]
  viability, T/C: 67.6%
[42]
  viability, T/C: 54.7%
[43]
  viability, T/C: 38.5%
[22]
  viability, T/C: 76.1%
[23]
  viability, T/C: 68.8%
[44]
  viability, T/C: 82%
[45]
  viability, T/C: 70.2%
[46]
  viability, T/C: 57.5%
[47]
  viability, T/C: 38.2%
[28]
  viability, T/C: 85.7%
[29]
  viability, T/C: 78.6%
[48]
  viability, T/C: 68.6%
[49]
  viability, T/C: 55.9%
[50]
  viability, T/C: 50.1%
[51]
  viability, T/C: 38.5%
[34]
  viability, T/C: 85.7%
[35]
  viability, T/C: 90.9%
[52]
  viability, T/C: 84.9%
[53]
  viability, T/C: 73.9%
[54]
  viability, T/C: 61.1%
[55]
  viability, T/C: 51.6%

## CC(C)CC(NC(=O)C(Cc1ccccc1)NC(=O)c1cnccn1)B(O)O (centres undefined) + NC1CC1c1ccc(-c2cccc(O)c2)cc1
[1]
  IC50: 0.511 nM
[2]
  IC50: 0.476 nM
[3]
  IC50: 0.422 nM
[4]
  IC50: 0.37 nM
[5]
  IC50: 0.406 nM
[6]
  viability, T/C: 85.2%
[7]
  viability, T/C: 0.72%
[8]
  viability, T/C: 0.11%
[9]
  viability, T/C: 0.11%
[10]
  viability, T/C: 0.08%
[11]
  viability, T/C: 0.28%
[12]
  viability, T/C: 77%
[13]
  viability, T/C: 0.78%
[14]
  viability, T/C: 1.61%
[15]
  viability, T/C: 0.94%
[16]
  viability, T/C: 0.07%
[17]
  viability, T/C: 0.15%
[18]
  viability, T/C: 66%
[19]
  viability, T/C: 2.41%
[20]
  viability, T/C: 0.13%
[21]
  viability, T/C: 0.11%
[22]
  viability, T/C: 0.07%
[23]
  viability, T/C: 0.18%
[24]
  viability, T/C: 57.5%
[25]
  viability, T/C: 2.76%
[26]
  viability, T/C: 0.12%
[27]
  viability, T/C: 0.32%
[28]
  viability, T/C: 0.11%
[29]
  viability, T/C: 0.17%
[30]
  viability, T/C: 62.5%
[31]
  viability, T/C: 4.98%
[32]
  viability, T/C: 1.52%
[33]
  viability, T/C: 1.12%
[34]
  viability, T/C: 1.32%
[35]
  viability, T/C: 0.55%

## Cn1ncnc1C1c2n[nH]c(=O)c3cc(F)cc(c23)NC1c1ccc(F)cc1 (centres undefined) + NC1CCC(NC2CC2c2ccccc2)CC1
[1]
  IC50: > 100 nM
[2]
  IC50: > 100 nM
[3]
  IC50: > 100 nM
[4]
  IC50: > 100 nM
[5]
  IC50: > 100 nM
[6]
  viability, T/C: 82.5%
[7]
  viability, T/C: 87.7%
[8]
  viability, T/C: 89%
[9]
  viability, T/C: 91.2%
[10]
  viability, T/C: 87.9%
[11]
  viability, T/C: 98.5%
[12]
  viability, T/C: 84.7%
[13]
  viability, T/C: 90.9%
[14]
  viability, T/C: 95.7%
[15]
  viability, T/C: 79.1%
[16]
  viability, T/C: 93.3%
[17]
  viability, T/C: 105%
[18]
  viability, T/C: 97.5%
[19]
  viability, T/C: 88.7%
[20]
  viability, T/C: 94.3%
[21]
  viability, T/C: 83.8%
[22]
  viability, T/C: 90.7%
[23]
  viability, T/C: 97.9%
[24]
  viability, T/C: 101%
[25]
  viability, T/C: 89.4%
[26]
  viability, T/C: 83.1%
[27]
  viability, T/C: 81.2%
[28]
  viability, T/C: 82.3%
[29]
  viability, T/C: 102%
[30]
  viability, T/C: 84.7%
[31]
  viability, T/C: 82.8%
[32]
  viability, T/C: 83.2%
[33]
  viability, T/C: 77%
[34]
  viability, T/C: 73.7%
[35]
  viability, T/C: 81.5%

## COc1cc(C2c3cc4c(cc3C(OC3OC5COC(C)OC5C(O)C3O)C3COC(=O)C23)OCO4)cc(OC)c1O (centres undefined)
Compound 0.00949 µM
  viability, T/C: 81.8% and 78.6%
Compound 0.03 µM
  viability, T/C: 73.6% and 82.9%
Compound 0.0949 µM
  viability, T/C: 78% and 57.8%
Compound 0.3 µM
  viability, T/C: 77.3% and 50.9%
Compound 0.949 µM
  viability, T/C: 73.4% and 48.3%
Compound 3 µM
  viability, T/C: 74.7% and 34.3%
Curve of compound
  IC50: > 3000 nM and 359 nM

## COc1ccc([C@@H](O)c2cc(-c3ncnc4cc(N5CCOCC5)ccc34)c(F)cc2Cl)nn1 + NC1CCC(NC2CC2c2ccccc2)CC1
[1]
  IC50: 1560 nM
[2]
  IC50: 2570 nM
[3]
  IC50: 1480 nM
[4]
  IC50: 1800 nM
[5]
  IC50: 1410 nM
[10]
  viability, T/C: 80.6%
[11]
  viability, T/C: 96.2%
[36]
  viability, T/C: 76.5%
[37]
  viability, T/C: 54.6%
[38]
  viability, T/C: 44.9%
[39]
  viability, T/C: 32.9%
[16]
  viability, T/C: 76.4%
[17]
  viability, T/C: 77.3%
[40]
  viability, T/C: 62.6%
[41]
  viability, T/C: 63.1%
[42]
  viability, T/C: 46.8%
[43]
  viability, T/C: 33.3%
[22]
  viability, T/C: 83.1%
[23]
  viability, T/C: 74.5%
[44]
  viability, T/C: 71.7%
[45]
  viability, T/C: 50.3%
[46]
  viability, T/C: 44.7%
[47]
  viability, T/C: 33.7%
[28]
  viability, T/C: 81.1%
[29]
  viability, T/C: 90.1%
[48]
  viability, T/C: 69.1%
[49]
  viability, T/C: 61.2%
[50]
  viability, T/C: 40.7%
[51]
  viability, T/C: 24.2%
[34]
  viability, T/C: 87.2%
[35]
  viability, T/C: 72.5%
[52]
  viability, T/C: 75.9%
[53]
  viability, T/C: 47.1%
[54]
  viability, T/C: 43.4%
[55]
  viability, T/C: 14.2%
